Measurements reported in US11833181B1, “Method of treating or preventing Alzheimer's Disease” (KING FAISAL UNIVERSITY, priority 2023, dated 2023).
Where “and” joins values, the source holds several entries; their conditions need not be identical. Equal entries are not always repeated. Marks after values point to notes of the source that are not given here.

Legend:
Assay type in all cases: in vivo, rat
[1] = tested on: aluminum chloride (AlCl3)-induced Alzheimer-like disease in rats; test: Reduced glutathione (GSH) level in brain homogenate of AlCl3-induced Alzheimer-like rats
Description: (§1) The neuroprotective effects of silymarin (SM) were tested on the hippocampal tissues of aluminum chloride (AlCl3)-induced Alzheimer's-like disease in rats using biochemical, histological, and immune-histochemical examination. For this experiment, 42 mature male albino rats were divided equally into 6 groups each of 7 rats as follows: • Group I: Rats injected with distilled water and served as the control group (non-induced); • Group II: Rats injected with AlCl3; • Group III: Rats injected with AlCl3, then silymarin; • Group IV: Rats injected with AlCl3, then collagen; • Group V: Rats injected with AlCl3 then silymarin nanoparticles; • Group VI: Rats injected with AlCl3 then silymarin+collagen nanoparticles.
(§2) All of the experimental animals were sacrificed, and their brains dissected to take out the cortex section. The homogenates (10%, w/v) were then centrifuged at 10,000 rpm for 15 min and the supernatants were conserved at […] for subsequent biochemical evaluations to determine, oxidative stress markers, catalase activity, superoxide dismutase, glutathione peroxidase, glutathione reductase; and lipid peroxidation.
To determine homogenate reduced glutathione (GSH) level, GSH was allowed to react with 5,5′-dithio-bis-2-nitrobenzoic acid (DTNB) (equation below), known as Ellman's reagent, generating a yellow-colored 2-nitro-5-thiobenzoic acid product. DTNB+2 GSH Glutathione reductase 2-nitro-5-thiobenzoic acid
The reagents used included sulfosalicylic acid, 4%; phosphate buffer, 0.1 M, pH 7.4 and pH 8; DTNB, 10 mM, 19.8 mg in 10 ml phosphate buffer pH 8, and standard GSH, and 1 mg/dl (32.54 μM) in phosphate buffer pH 7.4.
Proteins in 0.1 ml of either homogenate supernatants (samples) were precipitated using 0.1 ml of 4% sulfosalicylic acid. The samples were kept at 4° C. for at least 1 hour and then subjected to centrifugation at 3000 rpm for 10 min at 4° C. The assay mixture contained 0.1 ml supernatant, 2.7 ml phosphate buffer (0.1 M, pH 7.4), and 0.2 ml DTNB in a total volume of 3 ml.
The standard and blank experiment was carried out as above using 0.1 ml of standard GSH and distilled water, respectively instead of samples. The absorbance of the developed yellow color of samples and standard was read against blank at 412 nm.
The tissue contents of GSH were estimated using the following equation; GSH level (μmol/g protein)=[As Ast×Standard concentration×10]/total proteins, • where; • As: Absorbance of the sample (homogenate); • Ast: Absorbance of standard; and • 10: The tissue dilution.
(§3) Male albino rats were pretreated with one dose of the nano-formulation of 200 mg/kg/day for 15 days orally. The animals were then evaluated for neurobehavioral, infarct analysis, biochemical, histopathological studies.

[2] = tested on: aluminum chloride (AlCl3)-induced Alzheimer-like disease in rats; test: Catalase activity in brain homogenate of AlCl3-induced Alzheimer-like rats
Description: as §1, §2
Catalase reacts with a known quantity of H2O2. The reaction is stopped after exactly one minute with a catalase inhibitor. In the presence of peroxidase (HRP), remaining H2O2 reacts with 3,5-Dichloro-2-hydroxybenzene sulfonic acid (DHBS) and 4-aminophenazone (AAP) to form a chromophore with a color intensity inversely proportional to the amount of catalase in the original sample.
The reagents included: • buffer (Phosphate buffer, pH 7.0 Detergent)−100 mM/L; • H2O2 (substrate and standard) (Dilute 1000 times)−500 mM/L • Chromogen—Inhibitor— • Enzyme: Peroxidase 4-Aminoantipyrine Preservative->2000/L 2 mM/L.
as §3

[3] = tested on: aluminum chloride (AlCl3)-induced Alzheimer-like disease in rats; test: Lipid peroxidation (TBARS) in brain homogenate of AlCl3-induced Alzheimer-like rats
Description: as §1, §2
Lipid peroxidation was determined by measuring the thiobarbituric reactive substances (TBARS) in the homogenate where: Thiobarbituric acid+malondialdehyde Colored product+2 H2O Malondialdehyde (MDA), a major secondary product of lipid peroxidation (LPO) reacts with thiobarbituric acid (TBA), producing pink color adducts on heating. This reaction has been widely adopted as a sensitive method for lipid peroxidation that represents a major indicator of oxidative stress.
In four test tubes, homogenate supernatant (test) or water (blank) was added to 1 ml TCA and mixed well, then the solutions were centrifuged at 3000 rpm for 10 min. One milliliter of the supernatant of each of the previous four test tubes was added to 0.5 ml of TBA and heated for 30 min at 90° C. then cooled. The absorbance of samples (As) was read at 532 nm against blank.
The concentration of proteins was estimated. The levels of TBARS were calculated with the following equations:
For tissue homogenate: As: TBARS level (μmol/g protein)=(0.156×total protein×1000)×10, where; • As: absorbance of the sample (homogenate); • 0.156: molar extinction coefficient (μM−1 cm^−1); and • 10: the sample dilution factor.
as §3

[4] = tested on: aluminum chloride (AlCl3)-induced Alzheimer-like disease in rats; test: Nitric oxide (nitrite) level in brain homogenate of AlCl3-induced Alzheimer-like rats
Description: as §1, §2
Nitric oxide was rapidly oxidized to nitrite (NO^2−) and/or nitrate (NO^3−) by oxygen. In this method, nitrite was first treated with a diazotizing reagent, e.g., sulfanilamide (SA), in acidic media to form a transient diazonium salt. This intermediate was then allowed to react with a coupling reagent, N-naphthyl-ethylene diamine, to form a stable azo compound. The intense purple color of the product allows nitrite assay with high sensitivity and can be used to measure nitrite concentration as low as […]. The absorbance of this adduct at 540 nm is linearly proportional to the nitrite concentration in the sample.
The reagents included sulphanilamide (10 mM), N-(1-naphthyl) ethylenediamine, (1 mM), and standard sodium nitrite solution (100 μM). To four test tubes, each containing 1 ml sulphanilamide, 100 μl of either homogenate (test), standard solution (standard), or distilled water (blank) were added. The four test tubes were incubated for 5 minutes at room temperature. Then, 100 μl N-(1-naphthyl) ethylene diamine was added to all tubes and allowed to stand for 20 min at room temperature. The absorbance of the test and standard was read at 540 nm against blank.
The homogenate NO level was calculated according to the following equation: NO level (μM/g protein)=[As Ast×Standard concentration×10]/total proteins, where; • As: Absorbance of the sample (homogenate); • Ast: Absorbance of standard; and • 10: The sample dilution factor.
as §3

[5] = Table 1, single animal samples (code = group G + animal H), brain homogenate supernatant
[6] = Table 2, value ± spread per treatment group, Example 5, nano-formulation 200 mg/kg/day for 15 days orally

Compound	GSH [1, 5]	GSH [1, 6]	Catalase [2, 5]	Catalase [2, 6]	TBARS [3, 5]	TBARS [3, 6]	NO [4, 5]	NO [4, 6]
collagen	24.78 μmol/g protein and 11.61 μmol/g protein	14.44 ± 0.58^b	111 U/g and 52 U/g	62.33 ± 1.45^b	0.74 μmol/g protein and 0.60 μmol/g protein	0.71 ± 0.01^bc	37.22 μM/g protein and 36.11 μM/g protein	34.91 ± 0.83^bc
[Cl][Al]([Cl])[Cl] [AlCl3, aluminum chloride]	12.06 μmol/g protein and 14.51 μmol/g protein	19.03 ± 3.89^bc	54 U/g and 65 U/g	84.33 ± 17.27^bc	1.54 μmol/g protein and 1.48 μmol/g protein	0.68 ± 0.04^bc	61.67 μM/g protein and 65.00 μM/g protein	36.18 ± 0.58^bc
